Experimental data taken from patent US20070191324A1, “Methods for treatment or prophylaxis of aldosterone-mediated pathogenic effects in a subject using an epoxy-steroidal aldosterone antagonist” (priority 1999, published 2007).

How the values were obtained:
[1] = test system: saline-loaded adrenalectomized rats treated with aldosterone; assay: Subcutaneous vs. oral eplerenone in saline-loaded adrenalectomized rats treated with aldosterone (Example A-3); assay type: in vivo
Procedure: Urinary sodium, potassium and water excretion were measured. The results are expressed as the ratio of excreted urinary sodium to potassium (Na/K)±SEM.

[2] = test system: patients with hypertension and left ventricular hypertrophy; assay: Eplerenone, enalapril and combination in left ventricular hypertrophy, 9 months (Examples A-15, D-4); assay type: in vivo, human
Description: Table […] illustrates forth the above-described dosing scheme. […] Additional laboratory assessments of blood for clinical safety will be done monthly. Routine urinalysis will be done every three months. […] A blood sample for genotyping will be collected at Week 0. At screening and at Month 9, a 12-lead ECG and physical examination will be done. […] In case of early termination, an MRI and blood sample for TSH will be done for those patients who have received double-blind treatment for at least three months. At Weeks 0, 12 and Months 6 and 9, pharmacoeconomic data will be collected on all patients. The primary measure of efficacy is the change from baseline in LVM, as assessed by MRI, in the eplerenone group versus the enalapril group. […] Secondary measures of efficacy will be the following: […] (3) aortic compliance and ventricular filling parameters; and (4) special studies (PIIINP, microalbuminuria, PAI, and tPA). Additionally, the long-term safety and tolerability of the three treatment groups will be compared. […] The study design is illustrated in FIG. D-10. […] Left ventricular mass (LVM) (assayed by MRI), BP, collagen turnover, and tolerability were assessed at the 9-month endpoint.

[3] = test system: captopril-treated saline-drinking SHRSP; assay: Angiotensin II-induced renal damage in captopril-treated saline-drinking SHRSP, Protocol 2 (Example A-8); assay type: in vivo, rat (SHRSP/A3N)
Procedure: Animals. Studies were conducted in accordance with institutional guidelines using male SHRSP/A3N (generations F-75 to F-78), n=37, from our local colony. These animals were bred from NIH stock, derived from the SHRSP/A3N substrain described originally by Okamoto and coworkers (Okamoto K et al. Circ. Res. 34 and 35 (suppl I):I-143-I-153.). All animals were housed in a room maintained on a 12:12-h light:dark-cycle and an ambient temperature of 22±1° C. in the Animal Care Facility at New York Medical College. Rats were weaned at 4 weeks of age and allowed free access to Purina Lab Chow 5001 (Ralston Purina, St. Louis, Mo.) and tap water until the initiation of experimental protocols.
SHRSP were placed on Stroke-Prone Rodent Diet (#39-288, Zeigler Bros Inc., Gardners, Pa.) and 1% NaCl drinking solution ad libitum starting at 8.3 weeks of age. […] Animals were handled and weighed daily. Urine samples were collected for the assessment of proteinuria. Systolic blood pressure and heart rate were measured each week. After 2 weeks of treatment, animals were decapitated, trunk blood was collected into chilled EDTA tubes, and the kidneys were removed, blotted dry, and immediately weighed. Coronal sections of kidney were fixed and later processed for light microscopic evaluation.
Assays and Analyses. Systolic blood pressure and heart rate of awake animals were measured by tail-cuff plethysmography using a Natsume KN-210 manometer and tachometer (Peninsula Laboratories Inc., Belmont, Calif.). Rats were warmed at 37° C. for 10 min and allowed to rest quietly in a Lucite chamber before measurement of blood pressure. Measurements of urine volume were made gravimetrically. Urinary protein concentration was determined by the sulfosalicylic acid turbidity method. Plasma aldosterone was measured by radioimmunoassay using ^125I-aldosterone as a tracer (Coat-a Count Aldosterone, Diagnostic Products Co., Los Angeles, Calif.).
Histology. Kidneys were preserved in 10% phosphate-buffered formalin. Coronal sections (2-3 μm) were stained with hematoxylin and eosin and examined by light microscopy in a blinded fashion as previously described (Stier C T et al. J Pharmacol Exp Ther (1992) 260:1410-1415). Glomerular damage was categorized as ischemic or thrombotic. Ischemic lesions were defined as retraction of glomerular capillary tufts with or without appreciable mesangiolysis. Glomerular thrombotic lesions were defined as any one of a combination of the following: segmental to global fibrinoid necrosis, focal thrombosis of glomerular capillaries, swelling and proliferation of intracapillary (endothelial and mesangial) and/or extracapillary cells (crescents), and expansion of reticulated mesangial matrix with or without significant hypercellularity. […] Vascular thrombotic lesions were defined as any one or a combination of the following: mural fibrinoid necrosis, extravasation and fragmentation of red blood cells, and luminal and/or mural thrombosis. Proliferative arteriopathy was characterized by proliferation of markedly swollen myointimal cells with swollen round to ovoid vesicular nuclei surrounded by mucinous extracellular matrix (“onion skinning”) often resulting in nodular thickening. Vascular damage was expressed as the number of arteries and arterioles with lesions per 100 glomeruli. The presence of casts and tubular (ischemic) retraction and simplification was assessed semiquantitatively.
Statistical Analysis. Significant effects with respect to treatment and time were determined by two-way analysis of variance. Data with only one grouping variable were analyzed statistically by Student's unpaired t tests. When more than two groups were compared, one-way analysis of variance was performed followed by the post-hoc Newman-Keul's multiple comparison test. Data were analyzed using version 2.01 of the GraphPad Prism statistical software package (GraphPad Software Inc., San Diego, Calif.). P<0.05 was considered statistically significant.

[4] = test system: saline-hydrated conscious dogs treated with aldosterone; assay: Antimineralocorticoid action in saline-hydrated conscious dogs treated with aldosterone (Example A-2); assay type: in vivo; details: aldosterone i.v. infusion; antagonist 10 mg/kg orally
[5] = 9-month endpoint, forced titration
[6] = 9-month endpoint, EPL 200 mg, ENAL 40 mg, EPL 200 mg/ENAL 10 mg
[7] = captopril 50 mg/kg/d, angiotensin II 25 ng/min, eplerenone 100 mg/kg/d, 2 weeks

## COC(=O)[C@@H]1CC2=CC(=O)CC[C@]2(C)[C@@]23O[C@@H]2C[C@@]2(C)[C@@H](CC[C@@]24CCC(=O)O4)[C@H]13 [Eplerenone, Pregn-4-ene-7,21-dicarboxylic acid, 9,11-epoxy-17-hydroxy-3-oxo-, γ-lactone, methyl ester, (7α, 11α, 17β)-]
[1]; Table A-3A, aldosterone + antagonist 10 mg/100 g rat
  Mean Na/K: 2.17
[1]; Table A-3A, aldosterone + antagonist 30 mg/100 g rat
  Mean Na/K: 2.98
[1]; Table A-3A, aldosterone + antagonist 100 mg/100 g rat
  Mean Na/K: 3.44
[1]; Table A-3B, aldosterone + antagonist 3 mg/100 g rat
  Mean Na/K: 0.90
[1]; Table A-3B, aldosterone + antagonist 10 mg/100 g rat
  Mean Na/K: 1.34
[1]; Table A-3B, aldosterone + antagonist 30 mg/100 g rat
  Mean Na/K: 1.18
[1]; Table A-3B, aldosterone + antagonist 100 mg/100 g rat
  Mean Na/K: 2.10
[1]; Table A-3B, aldosterone + antagonist 300 mg/100 g rat
  Mean Na/K: 4.79
[1]; Table A-3B, aldosterone + antagonist 1000 mg/100 g rat
  Mean Na/K: 5.70
[1]; antagonism of aldosterone-mediated renal effects
  efficacy of subcutaneous injection versus oral administration: Subcutaneous injection provided better efficacy than oral administration
[2]; [5]
  DBP Adjusted mean change: −10.8 mmHg
  SBP Adjusted mean change: −21.0 mmHg
[2]; [6]
  decrease from baseline in UACR: −28.7%
  decrease from baseline in collagen turnover: −7.3%
[2]; 9-month study
  patients experiencing coughing: 3.1%
[2]; left ventricular mass by MRI, 9-month endpoint, forced titration (EPL 50-200 mg, ENAL 10-40 mg)
  LVM Adjusted mean change [g (SE)]: −14.5 (3.36) g
[2]; monotherapy
  regressing LVH and reducing collagen turnover: as effective as enalapril monotherapy
[3]; [7]
  Glomerular damage, Thrombotic: 1.0 ± 0.3 lesions/100 glomeruli
  plasma aldosterone concentration: 231 ± 37 pg/mL
[3]; captopril + angiotensin II 25 ng/min, with eplerenone 100 mg/kg/d or vehicle
  renal damage: 3±1%
[4]
  Na/K Ratio: 2.1
  Urinary Excretion Potassium: 11.9 ± 1 mmol/2 h
  Urinary Excretion Sodium: 24.4 ± 3 mmol/2 h
